In patent US20150056702A1, “METHOD AND KIT FOR CULTURING STEM CELLS” (China Medical University, priority 2013, published 2015):

Experiments:
Format in all cases: cell-based, mouse
EGF = assay: Real-time PCR, cytokine gene EGF in ES cells; conditions: for EGF mRNA expression level: ES cells, control group = 100%
Experimental: (§1) An experimental group medium (BP5, BP10, BP20 or BP40) and a control group medium (without BP) were added respectively to perform the following steps. ES cells were cultured with an initial density of 1×10^4 per well in a 6-well culture dish. The medium was removed until the cells growth to be about 70 to 80% confluence, and then 1 ml TRIzol (Invitrogen) was added into each well. The cells were incubated for 5 minutes, and then was scraped by a spatula and placed into a 1.5 ml microtube to be lysed adequately. Chloroform (0.2 ml) was added into the microtubes. The mixture was shaken up and down for 15 seconds, and then incubated at room temperature for 2 to 3 minutes. Thereafter, the mixture was centrifuged at 12000 rpm at 4° C. for 15 minutes, and the supernatant was removed into another 1.5 ml microtube and isopropanol (0.5 ml) was added into the microtube with well mixing. The mixture was incubated at room temperature for 10 minutes and then centrifuged at 12000 rpm at 4° C. for 10 minutes. The supernatant was then removed. One ml of 70% ethanol containing DEPC.H2O was used to wash the remaining sediment. The sediment was centrifuged at 7500 rpm at 4° C. for 5 minutes. The supernatant was removed. The sediment was dried by vacuum suction. The dried samples were dissolved in about 0.01 to 0.02 ml of DEPC.H2O to obtain the experimental group RNA and control group RNA. Both groups were stored at −80° C.
(§2) The OD value of RNA samples in both groups obtained from the above Experiment I were measured at a wavelength of 260 nm (RNA: OD260=1 for a 40 μg/mL solution). Each RNA sample (2 μl) was added with RNA-free water until the volume of the sample reached 10 μl. Two μl oligo (dT) (100 μg/ml) was added into each sample, and the samples were incubated at 65° C. for 5 minutes. Then, the samples were immediately placed on ice and spun down. Next, 6.5 μl of a reaction solution [4 μl of 5× buffer+1 μl of 0.1 M DTT+1 μl of RNase out+0.5 μl of SSIII (Invitrogen)] was added into each of the samples, and the samples were incubated at 50° C. for about 30 to 60 minutes and at 75° C. for 15 minutes to obtain the experimental group cDNA and control group cDNA. Both groups were stored at −80° C.
(§3) This experiment was used to detect the expression levels of ES cell-related genes, i.e., Oct4 and Sox2, etc. First, 4 μl of the experimental group cDNA or control group cDNA was added into each well of a 96-well micro-reaction plate, and mixed with 6 μl of a reaction solution [0.5 μl of 6 μM forward primer+0.5 μl of 6 μM reverse primer+5 μl of SYBR Green PCR Master mix (Roche)], wherein the SYBR Green PCR Master mix included the reagents needed for Q-PCR, such as dNTPs, MgCl, Taq DNA polymerase and 2×SYBR® Green I solution. […] The cycle threshold (CT) values were measured. […]

Jak2 = assay: Real-time PCR, Jak2 mRNA in ES cells; conditions: for Jak2 Gene expression level: ES cells, control group = 100%
Experimental: as §1, §2, §3

SSEA1 = assay: Immunofluorescence staining, SSEA1 in iPS cells; conditions: 72 hours, control group = 100%
Description: (§4) Nanog and SSEA1 are also marker proteins of stem cells, and their expression levels could be measured by immunofluorescence staining to further confirm whether BP can effectively maintain the self-renewal and pluripotency of stem cells.
(§5) An experimental group medium (BP5, BP10, BP20 or BP40), a LIF-containing medium (without BP), and a control group medium (without BP) were used respectively in a 6-well culture dish which comprises a slide in each well to culture ES cells with an initial density of 1×10^4 per well for 72 hours. The medium was removed and the cells were washed with PBS. Next, PBS was removed, and then 4% paraformaldehyde was added to perform the fixation at room temperature for 10 minutes. Next, paraformaldehyde was removed, and then slides were washed with 0.1% Tween-20/1X PBS three times for 10 minutes each time. The 0.3% Tween-20/1X PBS was added and held at room temperature for 30 minutes to penetrate the cell membrane to benefit the dye entry. After the slides were washed three times with 0.1% Tween-20, 5% FBS/1×PBS was added to perform a blocking reaction at room temperature for 2 hours, and then reacting with the primary antibody [anti-Nanog (Novus) or anti-SSEA1 (Millipore)] at a dilution of 1:100 at room temperature overnight. Slides were then washed 5 times with 0.1% Tween-20, then reacting with the secondary antibody [FITC-conjugated anti-mouse IgG or TRITC-conjugated anti-rabbit IgG (Sigma-Aldrich)] at a dilution of 1:500. After washed with 0.1% Tween-20 for 10 minutes, slides were mounted with the DAPI-containing UltraCruz™ Mounting medium and observed using an inverted fluorescent microscope.
By using the above culture conditions, an experimental group medium (BP5, BP10, BP20 or BP40), a LIF-containing medium (without BP), and a control group medium (without BP) were used respectively to culture iPS cells. The staining of iPS cells was performed by using the steps described above.

EPO = assay: Real-time PCR, cytokine gene EPO in ES cells; conditions: for EPO mRNA expression level: ES cells, control group = 100%
Experimental: as §1, §2, §3

Nanog = assay: Immunofluorescence staining, Nanog in ES cells; conditions: for Nanog expression level: ES cells, 72 hours, control group = 100%
Description: as §4, §5

LIF = assay: Real-time PCR, cytokine gene LIF in ES cells; conditions: for LIF mRNA expression level: ES cells, control group = 100%
Experimental: as §1, §2, §3

IL5 = assay: Real-time PCR, cytokine gene IL5 in ES cells; conditions: for IL5 mRNA expression level: ES cells, control group = 100%
Experimental: as §1, §2, §3

[1] = BP10 medium (about 10 μg BP/ml)
[2] = BP-containing ES cell medium, result in words
[3] = BP20 medium (about 20 μg BP/ml)
[4] = BP40 medium (about 40 μg BP/ml)
[5] = LIF-containing medium (LIF 4 ng/ml)
[6] = LIF-containing medium (LIF 4 ng/ml, without BP)

Molecule: CCCC=C1OC(=O)c2ccccc21 [BP, n-butylidenephthalide]
- EGF mRNA expression level (EGF; BP5 medium (about 5 μg BP/ml)): 110%
- EGF mRNA expression level (EGF; [1]): 204%
- mRNA expression level of EGF (EGF; [2]): significantly up-regulated
- Jak2 Gene expression level (Jak2; BP5 medium (about 5 μg BP/ml)): 180%
- Jak2 Gene expression level (Jak2; [1]): 211%
- mRNA expression level of Jak2 (Jak2; BP-containing ES cell medium (BP5 or BP10), result in words): significantly up-regulated
- SSEA1 expression level (SSEA1; BP5 medium (about 5 μg BP/ml)): 117%
- SSEA1 expression level (SSEA1; [1]): 101%
- SSEA1 expression level (SSEA1; [3]): 94%
- SSEA1 expression level (SSEA1; [4]): 137%
- EPO mRNA expression level (EPO; BP5 medium (about 5 μg BP/ml)): 97%
- EPO mRNA expression level (EPO; [1]): 196%
- mRNA expression level of EPO (EPO; [2]): significantly up-regulated
- Nanog expression level (Nanog; BP5 medium (about 5 μg BP/ml)): 113.22%
- Nanog expression level (Nanog; [1]): 183.28%
- Nanog expression level (Nanog; [3]): 213.8%
- Nanog expression level (Nanog; [4]): 212.83%
- expression level of Nanog (Nanog; BP-containing ES cell medium vs control group (without BP), result in words): higher
- LIF mRNA expression level (LIF; BP5 medium (about 5 μg BP/ml)): 113%
- LIF mRNA expression level (LIF; [1]): 184%
- mRNA expression level of LIF (LIF; [2]): significantly up-regulated
- IL5 mRNA expression level (IL5; BP5 medium (about 5 μg BP/ml)): 65%
- IL5 mRNA expression level (IL5; [1]): 175%
- mRNA expression level of IL-5 (IL5; [2]): significantly up-regulated

Molecule: LIF: multifunctional cell factor used to maintain pluripotency of stem cells; LIF-containing medium (4 ng/ml, without BP) as comparison
- EGF mRNA expression level (EGF; [5]): 145%
- Jak2 Gene expression level (Jak2; [6]): 159%
- SSEA1 expression level (SSEA1; [6]): 230%
- EPO mRNA expression level (EPO; [5]): 91%
- Nanog expression level (Nanog; [6]): 204.46%
- LIF mRNA expression level (LIF; [5]): 81%
- IL5 mRNA expression level (IL5; [5]): 35%
